Results on one compound are retold here after patent US11583543B2, “Ambroxol to improve and/or extend healthspan, lifespan and/or mental acuity” (NeueRe, LLC, priority 2017, dated 2023).

The test system of one experiment is NIH3T3 cells. Kind of experiment: Basal macroautophagy, mCherry-GFP-LC3 tandem reporter, high content microscopy. Format: cell-based, mouse. To be noted: 24 h in complete media; autophagic vacuoles, autophagosomes, autolysosomes; FIG. 3. On the procedure:
FIG. 3. Effect of Ambroxol on basal macroautophagy in mouse cells. Mouse fibroblasts in culture (NIH3T3 cells) expressing the tandem reporter mCherry-GFP-LC3 were exposed to the indicated concentrations of Ambroxol for 24 h in complete media. Panel A. Schematic of the autophagic compartments analyzed. Panels B-D. Number of autophagic vacuoles (AV) (Panel B); autophagosomes (APG) (Panel C); and autolysosomes (AUT) (Panel D). All values are mean+s.e.m. and quantifications were done in at least 2,500 cells per condition in three different experiments using high content microscopy. Differences with untreated (0 uM ambroxol) are significant for *p<0.05 **p<0.01 and ***p<0.001.
Mouse fibroblasts (NIH3T3) were obtained from the American Type Culture Collection (ATCC). […] The number of particles/puncta per cell was quantified using the ‘particle identifier’ function in the cytosolic region after thresholding in non-saturated images. In all cases, focal plane thickness was set at 0.17 μm and sections with maximal nucleus diameter were selected for quantification. […] Macroautophagy activity in intact cells was measured upon transduction with lentivirus carrying the mCherry-GFP-LC3 tandem construct. […] Cells were plated on glass-bottom 96 well plates and fluorescence was read in both channels. […] Autophagic flux was determined as the conversion of autophagosomes (yellow) to autolysosomes (red only puncta).

The next experiment concerns mice. In words: Novel place recognition cognitive acuity test. Format: in vivo, mouse. To be noted: tested at 7 months, FIG. 2. The procedure:
FIG. 2. Mice were tested at age 7 months for novel place recognition. This is a cognitive test to measure short term working memory, involving recognition of a familiar object found in an unfamiliar place (see Magen et al (2012) Eur. J. Neurosci. 35: 870-882; Magen and Chesselet (2011) J. Parkinson's Disease 1: 217-227). A Discrimination Index (DI)=(tnovel−tfamiliar)/(tnovel+tfamiliar) is used to assess the time spent exploring near the object in a novel place (“tnovel”) vs. the total exploration time overall. Discrimination Index scores greater than zero are considered to indicate good place recognition memory. In this experiment, three groups of mice, with at least 13 mice in each group, were given a cognitive acuity test at 7 months.

The test system of a further experiment is male BDF1 mice. In words: Lifespan study with ambroxol as chow supplement. Format: in vivo, mouse. On the procedure: Group 1 represents control animals that were not administered ambroxol; Group 2 represents animals administered 50 mg/kg (body weight) of ambroxol daily as a chow supplement, starting at 2 months of age
Weaned male BDF1 mice were raised from pups, housed 1-4 animals per cage and fed Teklad 7013 NIH-31 rodent chow and water ad libitum. At 2 months of age, the mice were divided into two roughly equal groups of 22-25 animals. One group continued to be fed the Teklad chow as before (control); the other group was switched to Teklad chow formulated with ambroxol at 300 mg per kg of chow. This formulation was designed, based on the average ad libitum chow consumption of an adult male BDF1 mouse, to deliver 50 mg/kg/day (based on body mass) to each mouse in the treated group. Mice were maintained on this diet until they died naturally or until they reached 16 months of age, at which time the experiment ended. During the course of the experiment all mice were periodically removed from their cages and handled in the course of subjecting them to various sensorimotor, cognitive, and/or behavioral tests.
Group 1 represents control animals that were not administered ambroxol; Group 2 represents animals administered 50 mg/kg of ambroxol daily as a chow supplement, starting at 2 months of age.

On to `Nc1c(Br)cc(Br)cc1CN[C@H]1CC[C@H](O)CC1` [Ambroxol, trans-4-(2-amino-3,5-dibromobenzylamino) cyclohexanol], for which the macroautophagy result in the experiment with NIH3T3 cells is given as “Induces Macroautophagy”. For the same compound, the cognitive acuity entry with mice (High Dose group 150 mg/kg/day) was “best cognitive acuity results”; in the experiment with mice (Low Dose group 50 mg/kg/day), “results in between the Control Group and the “High Dose” Group”. Moreover, the lifespan result with male BDF1 mice (50 mg/kg daily as chow supplement from 2 months of age, until 16 months, vs control (Group 1), FIG. 1) was “increase lifespan”. For the same compound, the “healthspan (health of surviving animals when sacrificed)” value in the experiment on male BDF1 mice (Group 2, 50 mg/kg daily, vs Group 1 control, preliminary data) is given as “at least as healthy”.
